This is an account of results in ChEMBL document CHEMBL4219169, “Sulfoximines as potent RORγ inverse agonists” (Bioorg Med Chem Lett, 2018).

pIC50, pKd: −log10 of the molar value.

Series [1] deals with T1, Retinoic acid receptor gamma (Homo sapiens, UniProt P13631).
T1 sequence (P13631 whole entry): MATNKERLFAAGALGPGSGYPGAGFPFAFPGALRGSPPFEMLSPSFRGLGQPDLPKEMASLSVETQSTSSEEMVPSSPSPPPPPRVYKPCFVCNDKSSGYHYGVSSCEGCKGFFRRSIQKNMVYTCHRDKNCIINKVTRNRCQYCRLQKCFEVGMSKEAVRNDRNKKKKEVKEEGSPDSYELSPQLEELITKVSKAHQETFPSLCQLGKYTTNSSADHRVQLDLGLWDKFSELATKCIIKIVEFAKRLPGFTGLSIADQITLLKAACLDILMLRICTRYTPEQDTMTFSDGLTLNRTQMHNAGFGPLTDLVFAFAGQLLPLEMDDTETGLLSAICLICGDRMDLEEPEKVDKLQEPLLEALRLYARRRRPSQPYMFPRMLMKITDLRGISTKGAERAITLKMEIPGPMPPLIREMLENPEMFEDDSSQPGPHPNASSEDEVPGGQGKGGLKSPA
Put plainly: Inverse agonist activity at RARgamma (unknown origin) expressed in human HeLa-derived HG5LN cells transfected with the GAL4 DNA-binding domain fused to the RARgamma ligand-binding domain assessed as inhibition of transcriptional activity after 18 hrs by luminescence-based luciferase reporter gene assay. The series is classed as cell-based.

Series [2] relates to Salmonella typhimurium. Put plainly: Genotoxicity in Salmonella typhimurium TA98 in presence of aroclor-1254-induced rat S9 fraction by Ames test. The series is classed as toxicity, organism-based. Conditions: salmonella enterica subsp. enterica serovar typhimurium.
Series [3] deals with T2, Peroxisome proliferator-activated receptor gamma (Homo sapiens, UniProt P37231).
T2 sequence (P37231 whole entry): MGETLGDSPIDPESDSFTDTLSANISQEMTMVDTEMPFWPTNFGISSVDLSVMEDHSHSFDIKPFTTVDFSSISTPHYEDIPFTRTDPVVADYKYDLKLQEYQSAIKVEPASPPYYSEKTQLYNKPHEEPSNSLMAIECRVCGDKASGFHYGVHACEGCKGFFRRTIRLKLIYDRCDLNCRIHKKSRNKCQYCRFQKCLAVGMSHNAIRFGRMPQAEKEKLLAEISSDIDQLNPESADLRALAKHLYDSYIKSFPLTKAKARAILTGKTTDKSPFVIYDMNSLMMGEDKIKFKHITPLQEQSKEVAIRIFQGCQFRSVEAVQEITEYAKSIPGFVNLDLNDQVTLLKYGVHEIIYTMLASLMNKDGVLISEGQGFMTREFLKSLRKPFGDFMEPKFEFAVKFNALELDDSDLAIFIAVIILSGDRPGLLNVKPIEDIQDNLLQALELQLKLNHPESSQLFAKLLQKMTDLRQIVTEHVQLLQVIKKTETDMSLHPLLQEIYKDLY
Description: Activity at PPARgamma (unknown origin) expressed in human HeLa-derived HG5LN cells transfected with the GAL4 DNA-binding domain fused to the PPARgamma ligand-binding domain assessed as inhibition of transcriptional activity after 18 hrs by luminescence-based luciferase reporter gene assay

A short description of series [4]: Fraction unbound in human plasma at 5 uM incubated for 4 hrs at 37 degC by LC-MS/MS method. The series is classed as ADME, cell-free.
Series [5] in a line: Phototoxicity against human neonatal keratinocytes assessed as cell viability preincubated for 30 mins before 5 J/cm2 UV light irradiation for 15 mins followed by treatment medium replacement with fresh culture medium after 24 hrs by neutral red dye-based assay. Conditions: 0.25 h.
A short description of series [6]: Stability of the compound in PG/EtOH96 (3/7) solution at 40 degC after 1 month by HPLC analysis. The series is classed as physicochemical. Conditions: read-out: Stability.
Series [7] deals with Salmonella typhimurium. As to the kind of experiment: Genotoxicity in Salmonella typhimurium TA100 in absence of aroclor-1254-induced rat S9 fraction by Ames test. Format: toxicity, organism-based. Conditions: salmonella enterica subsp. enterica serovar typhimurium.
Series [8] relates to TK6. Put plainly: Genotoxicity in human-derived p53-competent TK6 cells expressing GADD45a-dependent green fluorescent protein assessed as decrease in cell viability after 48 hrs in absence of Sprague-Dawley rat S9 fraction by FACS analysis. Conditions: tk6, 48 h. The series is classed as toxicity, cell-based.
Series [9] deals with TK6. As to the kind of experiment: Genotoxicity in human TK6 cells incubated for 27 hrs in absence of aroclor-1254-induced rat S9 fraction by Giemsa staining dependent optical microscopy based micronucleus test. Format: toxicity, cell-based. Conditions: tk6, 27 h.
The test system of series [10] is Mus musculus. Put plainly: In vivo inverse agonist activity at RORgamma in wild type BALB/c ByJ Rj mouse model of imiquimod-induced skin inflammation model assessed as attenuation of imiquimod-induced epidermal hyperplasia at 0.5 to 6% administered topically twice daily for 7 days dosed 2 hrs before and 6 hrs after imiquimod administration measured on day 8 by hematoxylin and eosin staining-based histological analysis. Format: functional, organism-based.

Series [11] is described as follows: Intrinsic clearance in human hepatocytes assessed per million cells at 1 uM incubated for 5 to 90 mins by LC-MS/MS method. The series is classed as ADME, cell-based, Hepatocyte. Conditions: read-out: CLH.
The subject of series [12] is Mus musculus. Put plainly: In vivo inverse agonist activity at RORgamma in wild type BALB/c ByJ Rj mouse model of imiquimod-induced skin inflammation model assessed as attenuation of imiquimod-induced epidermal hyperplasia at 6% administered topically twice daily for 7 days dosed 2 hrs before and 6 hrs after imiquimod administration measured on day 8 by hematoxylin and eosin staining-based histological analysis. Format: functional.

The subject of series [13] is TK6. Put plainly: Genotoxicity in human TK6 cells incubated for 3 hrs in absence of aroclor-1254-induced rat S9 fraction followed by 27 hrs recovery period by Giemsa staining dependent optical microscopy based micronucleus test. The series is classed as toxicity, cell-based. Conditions: tk6, 3 h.
In series [14] the test system is Mus musculus. As to the kind of experiment: In vivo inverse agonist activity at RORgamma in wild type BALB/c ByJ Rj mouse model of imiquimod-induced skin inflammation model assessed as attenuation of imiquimod-induced epidermal hyperplasia at 1% administered topically twice daily for 7 days dosed 2 hrs before and 6 hrs after imiquimod administration measured on day 8 by hematoxylin and eosin staining-based histological analysis. Format: functional.

The test system of series [15] is Mus musculus. Put plainly: In vivo inverse agonist activity at RORgamma in wild type BALB/c ByJ Rj mouse model of imiquimod-induced skin inflammation model assessed as attenuation of imiquimod-induced epidermal hyperplasia at 0.5% administered topically twice daily for 7 days dosed 2 hrs before and 6 hrs after imiquimod administration measured on day 8 by hematoxylin and eosin staining-based histological analysis. The series is classed as functional.

Series [16] deals with Salmonella typhimurium. Put plainly: Genotoxicity in Salmonella typhimurium TA100 in presence of aroclor-1254-induced rat S9 fraction by Ames test. Format: toxicity, organism-based. Conditions: salmonella enterica subsp. enterica serovar typhimurium.
Series [17] has as its system Mus musculus. Put plainly: In vivo inverse agonist activity at RORgamma in wild type BALB/c ByJ Rj mouse model of imiquimod-induced skin inflammation model assessed as attenuation of imiquimod-induced epidermal hyperplasia at 3% administered topically twice daily for 7 days dosed 2 hrs before and 6 hrs after imiquimod administration measured on day 8 by hematoxylin and eosin staining-based histological analysis. Format: functional.

The target of series [18] is T3, Oxysterols receptor LXR-beta (Homo sapiens, UniProt P55055).
T3 sequence (P55055 whole entry): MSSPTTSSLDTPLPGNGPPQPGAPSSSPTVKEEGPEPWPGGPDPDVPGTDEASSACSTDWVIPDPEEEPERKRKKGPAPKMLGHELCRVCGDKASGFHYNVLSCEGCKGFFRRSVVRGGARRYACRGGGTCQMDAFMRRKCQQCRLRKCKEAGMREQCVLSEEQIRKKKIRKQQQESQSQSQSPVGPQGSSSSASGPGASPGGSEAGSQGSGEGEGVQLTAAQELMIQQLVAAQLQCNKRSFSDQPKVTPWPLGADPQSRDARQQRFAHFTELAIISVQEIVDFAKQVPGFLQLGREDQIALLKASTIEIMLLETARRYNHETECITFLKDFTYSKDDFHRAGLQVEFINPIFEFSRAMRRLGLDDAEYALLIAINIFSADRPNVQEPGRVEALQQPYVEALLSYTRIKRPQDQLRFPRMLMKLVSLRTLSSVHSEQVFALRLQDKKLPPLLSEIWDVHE
Description: Activity at LXRbeta (unknown origin) expressed in human HeLa-derived HG5LN cells transfected with the GAL4 DNA-binding domain fused to the LXRbeta ligand-binding domain assessed as inhibition of transcriptional activity after 18 hrs by luminescence-based luciferase reporter gene assay

As to `CCc1ccc(N(CC(C)C)S(=O)(=O)c2ccc(OCC3CCOCC3)c([S@@](C)(=N)=O)c2)cc1`, the negative-log IC50 (pIC50) in series [1] is less than 5.00. Moreover, the Activity entry was “Non-Toxic” in the series with Salmonella typhimurium [2]; “Non-Toxic” in [5]; “Non-Toxic” in the series on Salmonella typhimurium [7]; “Non-Toxic” with TK6 [8]; “Non-Toxic” in the series on TK6 [9]; “Dose-dependent effect” in the series on Mus musculus [10]. In addition, the Activity with Mus musculus [12] is on record as 63%; in the series with TK6 [13], “Non-Toxic”; in the series on Mus musculus [14] it was 35%; in the series with Mus musculus [15], 29%; with Salmonella typhimurium [16], “Non-Toxic”; in the series with Mus musculus [17] it was 46%. Further, the pKd in series [3] and in series [18] was less than 5.00 throughout. The fraction unbound at 4 h, 5 µM in series [4] came to 0.048. For the same compound, the remaining at 730.5 h in series [6] is more than 98%. For the same compound, in series [11], the hepatocyte CLint at 1 µM came out at 180 µL/min/1e6 cells.
